Measured values: patent publication US9173425B2, “High-potency sweetener composition with vitamin and compositions sweetened therewith” (THE COCA-COLA COMPANY, priority 2005, dated 2015)

Columns and labels:
[1] = Rate of dissolution of rebaudioside A polymorphs in H2O at 25° C.; format: physicochemical; conditions: result in words
Excerpt: (§1) The purification of rebaudioside A by crystallization as described above results in the formation of at least four different polymorphs: Form 1: a rebaudioside A hydrate; Form 2: an anhydrous rebaudioside A; Form 3: a rebaudioside A solvate; and Form 4: an amorphous rebaudioside A. The aqueous organic solution and temperature of the purification process influence the resulting polymorphs in the substantially pure rebaudioside A composition. FIGS. 1-5 are exemplary powder x-ray diffraction (XRPD) scans of polymorphs Form I (hydrate), Form 2 (anhydrate), Form 3A (methanol solvate), Form 3B (ethanol solvate), and Form 4 (amorphous), respectively.

[2] = Alcohol content of rebaudioside A polymorphs; format: physicochemical
Excerpt: as §1

[3] = Moisture content of rebaudioside A polymorphs; format: physicochemical
Excerpt: as §1

[4] = format: physicochemical
Protocol: A solution of rebaudioside A (>97% pure by HPLC) was prepared in double distilled water (12.5 gm in 50 mL, 25% concentration) by stirring the mixture at 40° C. for 5 minutes. An amorphous rebaudioside A polymorph was formed by immediately using the clear solution for spray drying with the Lab-Plant spray drier SD-04 instrument (Lab-Plant Ltd., West Yorkshire, U.K.). The solution was fed through the feed pump into the nozzle atomizer which atomized it into a spray of droplets with the help of a constant flow of nitrogen/air. […] This dry powder (11-12 g, H2O 6.74%) was discharged continuously from the drying chamber and was collected in a bottle.

[5] = test system: panel of experts in the sensory evaluation of foods and beverages; assay: Sensory evaluation of sweetness linger and sugar-like taste by expert panel; format: in vivo, human; parameters: key: 0=no sweetness linger; 1=very slight sweetness linger; 2=slight sweetness linger; 3=moderate sweetness linger; 4=moderately high sweetness linger; 5=high sweetness linger; conditions: for Sweetness Linger rating defined by protocol: scale anchors: sucrose, 500 ppm of REBA control sample
Protocol: Sensory evaluation of the samples prepared in Example Set G was carried out under the following protocol, similar to that described hereinabove. In this test protocol, none of the samples were swallowed. All samples were expectorated and the mouth was rinsed with water after the tasting. Immediately upon sensing maximal sweetness, the sample was expectorated, the mouth was rinsed with water and the rate of sweetness decay (“Sweetness Linger”) was measured, where attention was focused on the sweetness 3-4 min after the water rinse. After sample tasting was complete, a salty oyster cracker was chewed followed by a water rinse, and at least 5 minutes followed before tasting the next sample. The sweetness linger was rated by a panel of experts in the sensory evaluation of foods and beverages using the following scale: 0=no sweetness linger, 1=very slight sweetness linger, 2=slight sweetness linger, 3=moderate sweetness linger, 4=moderately high sweetness linger, 5=high sweetness linger.
The “Sweetness Linger” rating for sucrose observed by this protocol is defined as 0. The Sweetness Linger of a 500 ppm of REBA control sample is defined as 5. Experimental samples were tasted by the same protocol, always allowing sufficient time between samples to ensure re-equilibration of the sensory system. Re-tasting of control samples during the course of the experiment was allowed and encouraged.
The comparison taste test was performed between two controls and addition of sweet taste improving additive on the onset and/or sweetness linger.
Sweet taste improving compositions were combined with a REBA solution to determine their effect on sweetness linger. Screening of the initial sample, or further dilutions, allowed identification of concentrations which were just above-threshold, herein defined as “near-threshold concentrations.” The near-threshold additive concentrations, a 6- to 100-fold higher additive concentration (depending on the off-taste intensity), and a mid-level additive concentration (halfway between the near-threshold and higher additive concentration) were evaluated to determine the effect on sweetness linger of a REBA solution. […]
Sensory evaluation using the protocol described in Example Set G then was used to evaluate the sweetness linger of the REBA solutions.

[6] = Sweetness level as sucrose equivalent

Rate of dissolution in H2O at 25° C. [1] | Alcohol content [2] | Moisture content [3] [%] | Compound | Sweetness Linger rating defined by protocol [5] | also measured
Intermediate | <1% | <1 | rebaudioside A [Form 2] | – | –
High | 1-3% | <3 | rebaudioside A [Form 3] | – | –
High | – | 6.74 | rebaudioside A [Form 4] | – | solubility in water at room temperature [4]: > 35.0%

Continued, compound first:

Compound | Rate of dissolution in H2O at 25° C. [1] | Alcohol content [2] | Moisture content [3] [%] | Sweetness Linger rating defined by protocol [5] | also measured
OC[C@H]1O[C@@](CO)(O[C@H]2O[C@H](CO)[C@@H](O)[C@H](O)[C@H]2O)[C@@H](O)[C@@H]1O [sugar, sucrose] | – | – | – | 0 | –
rebaudioside A | – | – | – | 5 | sweetness linger rating ([5]; control: 400 ppm REBA in citric acid/potassium citrate composition, no additive): 5; sweetness linger rating ([5]; control: 500 ppm REBA in carbon-treated water, phosphoric acid (75%) pH 2.4-2.5): 5; sucrose equivalence of sweetness ([6]; 180 ppm rebaudioside A in 1:1 diluted beverage): 5 % sucrose; sucrose equivalence of sweetness ([6]; 400 ppm REBA in citric acid/potassium citrate composition): 8 g sucrose
rebaudioside A [Form 1] | Very low | <0.5% | >5 | – | –
